From patent US7550467B2 (Schering Corporation, priority 2004, dated 2009) come the findings set out here.

This test deals with T1, MCH receptor (Homo sapiens, UniProt Q99705).
T1 construct: expressed in transfected cells; host or cells: CHO cells
The test is described as follows: MCH Receptor Binding Assay ([125I]-MCH, SPA beads, membranes from CHO cells expressing the MCH receptor). The method, then:
MCH Receptor Binding Assay:
Membranes from CHO cells expressing the MCH receptor were prepared by lysing cells with 5 mM HEPES for 15 minutes at 4° C. Cell lysates were centrifuged ([…], 15 minutes) and the pellet was resuspended in 5 mM HEPES. For each 96-well plate (Microlite, Dynex Technologies), 1 mg of cell membranes were incubated with 10 mg of wheat germ agglutinin SPA beads (Amersham) for 5 minutes at 4° C. in a volume of 10 ml of binding buffer (25 mM HEPES, 10 mM MGCl2, 10 mM NaCl, 5 mM MnCl2, 0.1% BSA). The membrane/bead mixture was centrifuged (1500×g, 3.5 min), the supernatant was aspirated, and the pellet was resuspended in 10 ml binding buffer. The centrifugation, aspiration and resuspension were then repeated. The membrane/bead mixture (100 μl) was then added to 96-well plates containing 50 μl of 500 pM [^125I]-MCH (NEN) and […] of the appropriate concentration of compound (4X the desired final concentration). Nonspecific binding was determined by including 1 μM MCH in the binding reaction. The binding reaction was incubated at room temperature for 2 hours. Plates were then analyzed in a TOPCOUNT microplate scintillation counter (Packard). Data was analyzed and Ki values were determined using GraphPad Prism.

T1 sequence (Q99705 whole entry): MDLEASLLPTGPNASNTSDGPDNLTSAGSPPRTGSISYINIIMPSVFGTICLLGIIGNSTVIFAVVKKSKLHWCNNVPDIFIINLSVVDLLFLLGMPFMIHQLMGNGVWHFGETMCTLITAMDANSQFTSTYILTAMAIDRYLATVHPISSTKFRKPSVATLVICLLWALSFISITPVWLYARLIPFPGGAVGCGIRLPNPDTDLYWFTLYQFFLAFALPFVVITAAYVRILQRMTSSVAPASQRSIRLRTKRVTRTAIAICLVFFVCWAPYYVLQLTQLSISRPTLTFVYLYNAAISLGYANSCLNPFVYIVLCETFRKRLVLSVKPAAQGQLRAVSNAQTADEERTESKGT

Compound `CN1CCN(CCCN(C(=O)Nc2ccc(F)c(Cl)c2)C2CCc3ccc([N+](=O)[O-])cc3C2)CC1` (stereo not drawn) [Compound II, 3-(3-chloro-4-fluoro-phenyl)-1-[3-(4-methyl-piperazin-1-yl)-propyl]-1-(7-nitro-1,2,3,4-tetrahydro-naphthalen-2-yl)-urea] displayed a Ki (Ki rating (class)) of under 1000 nM and a Ki ([125I]-MCH) of 11 nM.

`CNS(=O)(=O)c1ccc2c(c1)CC(N(CCCN1CCN(C)CC1)C(=O)Nc1ccc(F)c(C(F)(F)F)c1)CC2` (stereo not drawn) [Compound XXVII, 7-{3-(4-fluoro-3-trifluoromethyl-phenyl)-1-[3-(4-methyl-piperazin-1-yl)-propyl]-ureido}-5,6,7,8-tetrahydro-naphthalene-2-sulfonic acid methylamide] gave a Ki (Ki rating (class)) of 1000 to 2000 nM.

Regarding `CCNC(=O)Nc1ccc2c(c1)CC(N(CCCN1CCN(C)CC1)C(=O)Nc1ccc(F)c(Cl)c1)CC2` (stereo not drawn) [Compound IX, 1-(7-{3-(3-chloro-4-fluoro-phenyl)-1-[3-(4-methyl-piperazin-1-yl)-propyl]-ureido}-5,6,7,8-tetrahydro-naphthalen-2-yl)-3-ethyl-urea], the Ki runs as follows: (Ki rating (class)) under 1000 nM; ([125I]-MCH) 157 nM.

As to `CN1CCN(CCCN(C(=O)Nc2cc(Cl)nc(Cl)c2)C2CCc3cc(C#N)ccc3C2)CC1` (stereo not drawn) [Compound VI, 3-(2,6-dichloro-pyridin-4-yl)-1-(6-cyano-1,2,3,4-tetrahydro-naphthalen-2-yl)-1-[3-(4-methyl-piperazin-1-yl)-propyl]-urea], the Ki is under 1000 nM (Ki rating (class)) and 65 nM ([125I]-MCH).

For `C[C@@H]1CN(CCCN(C(=O)Nc2cc(Cl)nc(Cl)c2)C2COc3ccc(Br)cc3C2)[C@@H](C)CN1C(=O)OC(C)(C)C` (stereo partly drawn) [XXIII], the Ki (Ki rating (class)) is 1000 to 2000 nM.

In turn, `CN1CCN(CCCN(C(=O)Nc2ccc(F)c(Cl)c2)C2CCc3cc(C#N)ccc3C2)CC1` (stereo not drawn) [Compound XVI, 3-(3-chloro-4-fluoro-phenyl)-1-(6-cyano-1,2,3,4-tetrahydro-naphthalen-2-yl)-1-[3-(4-methyl-piperazin-1-yl)-propyl]-urea] showed a Ki (Ki rating (class)) of under 1000 nM.
